Relative viability data for one cell line are collected here from the supplement of paper PMC10307832.

Holding throughout (test): relative viability (nuclei count vs DMSO), 5 days (fraction); higher = more cells survive
Compound in assay [1]: Cn1c(Nc2ccc(C(F)(F)F)cc2)nc2cc(Oc3ccnc(-c4ncc(C(F)(F)F)[nH]4)c3)ccc21 [RAF265] + CC1(C)CCC(c2ccc(Cl)cc2)=C(CN2CCN(c3ccc(C(=O)NS(=O)(=O)c4ccc(N[C@H](CCN5CCOCC5)CSc5ccccc5)c(S(=O)(=O)C(F)(F)F)c4)cc3)CC2)C1 [Navitoclax] (partner 0.5 µM)
An outline of the steps:
(§1)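 One day after seeding in 1536-well plates, lung cancer cell lines were dosed by pin tool. Dosing was either single-drug or a fixed anchor-drug dose plus five library-drug doses (not always all listed) in √10 steps. After 5 days, nuclei were stained in one fix-and-stain step and counted on 4× images, and relative viability is the nuclei count of treated wells over that of vehicle wells, given as the median of duplicate plates.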

Compound in assay [2]: Cn1c(Nc2ccc(C(F)(F)F)cc2)nc2cc(Oc3ccnc(-c4ncc(C(F)(F)F)[nH]4)c3)ccc21 [RAF265] + O=C(c1cc(Cc2n[nH]c(=O)c3ccccc23)ccc1F)N1CCN(C(=O)C2CC2)CC1 [Olaparib] (partner 8 µM)
The method in brief: as §1

Compound in assay [3]: C1=CC=C2C(=C1)C=CC(=C2SSC3=C(C=CC4=CC=CC=C43)O)O [IPA-3] + COc1cccc2cc(-c3nc([C@H]4CC[C@H](C(=O)O)CC4)n4ncnc(N)c34)[nH]c12 [OSI-027] (partner 0.5 µM)
An outline of the steps: as §1

Compound in assay [4]: Cc1ccc(-n2nc(C(C)(C)C)cc2NC(=O)Nc2ccc(OCCN3CCOCC3)c3ccccc23)cc1 [Doramapimod] + CC(=O)Nc1cccc(-n2c(=O)n(C3CC3)c(=O)c3c(Nc4ccc(I)cc4F)n(C)c(=O)c(C)c32)c1 [Trametinib] (partner 0.02 µM)
An outline of the steps:
as §1

As for UMC-11, the relative viability came to 0.316 in assay [1] (first compound 0.01 µM); 0.326 in assay [1] (first compound 0.03162 µM); 0.299 in assay [1] (first compound 0.1 µM); 0.322 in assay [1] (first compound 0.3162 µM); 0.327 in assay [1] (first compound 1 µM); 0.408 in assay [2] (first compound 0.01 µM). Also, the relative viability in assay [2] (first compound 0.03162 µM) came out at 0.368; in assay [2] (first compound 0.1 µM), 0.966; in assay [2] (first compound 0.3162 µM), 0.31; in assay [2] (first compound 1 µM), 0.329; in assay [3] (first compound 0.2 µM), 0.5; in assay [3] (first compound 0.6325 µM), 0.49. Besides, the relative viability in assay [3] (first compound 2 µM) turned out to be 0.426; in assay [3] (first compound 6.325 µM), 0.458; in assay [3] (first compound 20 µM) it was 0.502; in assay [4] (first compound 0.02 µM), 0.689; in assay [4] (first compound 0.06325 µM), 0.638; in assay [4] (first compound 0.2 µM), 0.621. Further, the relative viability in assay [4] (first compound 0.6325 µM) is 0.463; in assay [4] (first compound 2 µM) it was 0.539.
